# Laboratory results as given in ChEMBL document CHEMBL3885861, “Open TG-GATES”.
# Species: Rattus norvegicus
# Assay: Open TG-GATES - Regimen: Single
# Type: toxicity, organism-based, Sprague-Dawley
# Parameters: regimen Single, gender Male, age 6 weeks
# Settings: in vivo, ip, 40 mg/kg, route intraperitoneal injection, dose level Low; for APTT / Bas / Eos / Fbg / Hb / Ht / Lym / MCH / MCHC / MCV / Mono / Neu / PT / Plat / RBC / Ret / WBC: tissue Blood; for KIDNEY_L / KIDNEY_R / KIDNEY_TOTAL: tissue Kidney; for LIVER: tissue Liver; for A/G / ALP / ALT / AST / BUN / CRE / Ca / Cl / DBIL / GLC / IP / K / LDH / Na / PL / RALB / TBIL / TC / TG / TP / gamma-GTP: tissue Plasma
compound,measurement,setting,value
CC(C)=CC(=O)C=C(C)C [PHORONE],TERMINAL_BW,3 h,219.9 g
same,APTT,3 h,16.7 s
same,Bas,3 h,0%
same,Eos,3 h,0.8%
same,Fbg,3 h,211 mg/dL
same,Hb,3 h,13.1 g/dL
same,Ht,3 h,39.1%
same,Lym,3 h,69.8%
same,MCH,3 h,21.6 pg
same,MCHC,3 h,33.5%
same,MCV,3 h,64.4 fL
same,Mono,3 h,8.4%
same,Neu,3 h,21.2%
same,PT,3 h,12.2 s
same,Plat,3 h,112.1 x10_4/uL
same,RBC,3 h,608 x10_4/ul
same,Ret,3 h,9.2%
same,WBC,3 h,105.8 x10_2/uL
same,KIDNEY_L,3 h,1 g
same,KIDNEY_R,3 h,1 g
same,KIDNEY_TOTAL,3 h,2 g
same,LIVER,3 h,10.5 g
same,A/G,3 h,2.3
same,ALP,3 h,735.6 IU/L
same,ALT,3 h,36.4 IU/L
same,AST,3 h,78.6 IU/L
same,BUN,3 h,14.8 mg/dL
same,CRE,3 h,0.6 mg/dL
same,Ca,3 h,10.6 mg/dL
same,Cl,3 h,106 meq/L
same,DBIL,3 h,0.034 mg/dL
same,GLC,3 h,193.6 mg/dL
same,IP,3 h,10.3 mg/dL
same,K,3 h,4.8 meq/L
same,LDH,3 h,83.8 IU/L
same,Na,3 h,139 meq/L
same,PL,3 h,133.6 mg/dL
same,RALB,3 h,3.6 g/dL
same,TBIL,3 h,0.4 mg/dL
same,TC,3 h,75.4 mg/dL
same,TG,3 h,46 mg/dL
same,TP,3 h,5.2 g/dL
same,gamma-GTP,3 h,2.4 IU/L
same,TERMINAL_BW,6 h,219.1 g
same,APTT,6 h,17.2 s
same,Bas,6 h,0%
same,Eos,6 h,0.6%
same,Fbg,6 h,216.8 mg/dL
same,Hb,6 h,13.5 g/dL
same,Ht,6 h,40.3%
same,Lym,6 h,66.2%
same,MCH,6 h,21.6 pg
same,MCHC,6 h,33.4%
same,MCV,6 h,64.8 fL
same,Mono,6 h,6.6%
same,Neu,6 h,26.8%
same,PT,6 h,12.3 s
same,Plat,6 h,114.9 x10_4/uL
same,RBC,6 h,621.6 x10_4/ul
same,Ret,6 h,9%
same,WBC,6 h,90 x10_2/uL
same,KIDNEY_L,6 h,1 g
same,KIDNEY_R,6 h,1 g
same,KIDNEY_TOTAL,6 h,2.1 g
same,LIVER,6 h,9.8 g
same,A/G,6 h,2.2
same,ALP,6 h,814.6 IU/L
same,ALT,6 h,36.2 IU/L
same,AST,6 h,70.8 IU/L
same,BUN,6 h,13.8 mg/dL
same,CRE,6 h,0.5 mg/dL
same,Ca,6 h,10.8 mg/dL
same,Cl,6 h,105 meq/L
same,DBIL,6 h,0.048 mg/dL
same,GLC,6 h,193.4 mg/dL
same,IP,6 h,10.1 mg/dL
same,K,6 h,4.9 meq/L
same,LDH,6 h,76 IU/L
same,Na,6 h,138.2 meq/L
same,PL,6 h,126.4 mg/dL
same,RALB,6 h,3.6 g/dL
same,TBIL,6 h,0.5 mg/dL
same,TC,6 h,72.2 mg/dL
same,TG,6 h,36.6 mg/dL
same,TP,6 h,5.3 g/dL
same,gamma-GTP,6 h,1.6 IU/L
same,TERMINAL_BW,9 h,220.4 g
same,APTT,9 h,17.1 s
same,Bas,9 h,0%
same,Eos,9 h,1%
same,Fbg,9 h,246.6 mg/dL
same,Hb,9 h,13.2 g/dL
same,Ht,9 h,39.8%
same,Lym,9 h,63.8%
same,MCH,9 h,21.8 pg
same,MCHC,9 h,33.3%
same,MCV,9 h,65.5 fL
same,Mono,9 h,8.6%
same,Neu,9 h,26.6%
same,PT,9 h,12.1 s
same,Plat,9 h,115.4 x10_4/uL
same,RBC,9 h,609 x10_4/ul
same,Ret,9 h,9.4%
same,WBC,9 h,96.2 x10_2/uL
same,KIDNEY_L,9 h,1 g
same,KIDNEY_R,9 h,1 g
same,KIDNEY_TOTAL,9 h,2 g
same,LIVER,9 h,9.5 g
same,A/G,9 h,2
same,ALP,9 h,839.8 IU/L
same,ALT,9 h,33.2 IU/L
same,AST,9 h,69 IU/L
same,BUN,9 h,13.8 mg/dL
same,CRE,9 h,0.5 mg/dL
same,Ca,9 h,10.8 mg/dL
same,Cl,9 h,106.6 meq/L
same,DBIL,9 h,0.04 mg/dL
same,GLC,9 h,204.2 mg/dL
same,IP,9 h,10 mg/dL
same,K,9 h,4.7 meq/L
same,LDH,9 h,91.4 IU/L
same,Na,9 h,138.8 meq/L
same,PL,9 h,131.8 mg/dL
same,RALB,9 h,3.6 g/dL
same,TBIL,9 h,0.4 mg/dL
same,TC,9 h,77.6 mg/dL
same,TG,9 h,54 mg/dL
same,TP,9 h,5.4 g/dL
same,gamma-GTP,9 h,1.8 IU/L
same,TERMINAL_BW,24 h,231.5 g
same,APTT,24 h,16.9 s
same,Bas,24 h,0%
same,Eos,24 h,0.8%
same,Fbg,24 h,231.2 mg/dL
same,Hb,24 h,12.9 g/dL
same,Ht,24 h,38.5%
same,Lym,24 h,77.8%
same,MCH,24 h,22 pg
same,MCHC,24 h,33.6%
same,MCV,24 h,65.4 fL
same,Mono,24 h,5.6%
same,Neu,24 h,16%
same,PT,24 h,11.5 s
same,Plat,24 h,113 x10_4/uL
same,RBC,24 h,589.8 x10_4/ul
same,Ret,24 h,8.8%
same,WBC,24 h,87.7 x10_2/uL
same,KIDNEY_L,24 h,1 g
same,KIDNEY_R,24 h,1 g
same,KIDNEY_TOTAL,24 h,2 g
same,LIVER,24 h,11.8 g
same,A/G,24 h,2
same,ALP,24 h,774.8 IU/L
same,ALT,24 h,34 IU/L
same,AST,24 h,65 IU/L
same,BUN,24 h,19.2 mg/dL
same,CRE,24 h,0.5 mg/dL
same,Ca,24 h,11 mg/dL
same,Cl,24 h,104.4 meq/L
same,DBIL,24 h,0.028 mg/dL
same,GLC,24 h,197.2 mg/dL
same,IP,24 h,8.3 mg/dL
same,K,24 h,4.7 meq/L
same,LDH,24 h,87.6 IU/L
same,Na,24 h,139 meq/L
same,PL,24 h,156 mg/dL
same,RALB,24 h,3.8 g/dL
same,TBIL,24 h,0.4 mg/dL
same,TC,24 h,81.8 mg/dL
same,TG,24 h,118.2 mg/dL
same,TP,24 h,5.7 g/dL
same,gamma-GTP,24 h,0.6 IU/L
